For orientation: pIC50 means the negative decadic logarithm of the IC50, by convention in mol/L. A higher pIC50 goes with a small IC50.

IC50 data for 37 compounds are collected here from ChEMBL document CHEMBL3112435, “1H-1,2,3-Triazole-tethered isatin-7-chloroquinoline and 3-hydroxy-indole-7-chloroquinoline conjugates: synthesis and antimalarial evaluation” (Bioorg Med Chem Lett, 2014).

pIC50: −log10 of the molar value.

The subject of the experiment is Plasmodium falciparum. Description: Antimalarial activity against chloroquine-resistant Plasmodium falciparum W2 after 48 hrs by flow cytometry. Conditions: W2, 48 h. Format: functional, organism-based. For orientation: Flow cytometry measures light scatter and fluorescence of single cells or particles in a stream.
`O=C1C(O)c2cc(F)ccc2N1CCCn1cc(COc2ccc(CNNc3ccnc4cc(Cl)ccc34)cc2)nn1` (configuration not stated) showed a pIC50 of 6.69.
In turn, `O=C1C(O)c2cc(F)ccc2N1CCCCn1cc(COc2ccc(CNNc3ccnc4cc(Cl)ccc34)cc2)nn1` (configuration not stated) gave a pIC50 of 6.79.
Then `O=C1C(O)c2cc(Cl)ccc2N1CCn1cc(COc2ccc(CNNc3ccnc4cc(Cl)ccc34)cc2)nn1` (configuration not stated), with 6.74; and `O=C1C(O)c2cc(Cl)ccc2N1CCCn1cc(COc2ccc(CNNc3ccnc4cc(Cl)ccc34)cc2)nn1` (configuration not stated), with 6.46; and `O=C1C(O)c2cc(Cl)ccc2N1CCCCn1cc(COc2ccc(CNNc3ccnc4cc(Cl)ccc34)cc2)nn1` (configuration not stated), with 6.77.
Then `Cc1ccc2c(c1)C(O)C(=O)N2CCn1cc(COc2ccc(CNNc3ccnc4cc(Cl)ccc34)cc2)nn1` (configuration not stated), with 6.49; and `Cc1ccc2c(c1)C(O)C(=O)N2CCCn1cc(COc2ccc(CNNc3ccnc4cc(Cl)ccc34)cc2)nn1` (configuration not stated), with 6.29; and `Cc1ccc2c(c1)C(O)C(=O)N2CCCCn1cc(COc2ccc(CNNc3ccnc4cc(Cl)ccc34)cc2)nn1` (configuration not stated), with 6.49.
Next, `O=C1C(=O)N(CCn2cc(COc3ccc(/C=N/Nc4ccnc5cc(Cl)ccc45)cc3)nn2)c2ccc(F)cc21`: 6.72.
Compound `O=C1C(=O)N(CCCn2cc(COc3ccc(/C=N/Nc4ccnc5cc(Cl)ccc45)cc3)nn2)c2ccc(F)cc21` showed a negative logarithm of the IC50 (pIC50) of 6.54.
Next, `O=C1C(=O)N(CCCCn2cc(COc3ccc(/C=N/Nc4ccnc5cc(Cl)ccc45)cc3)nn2)c2ccc(F)cc21`: 6.87.
Then `O=C1C(=O)N(CCn2cc(COc3ccc(/C=N/Nc4ccnc5cc(Cl)ccc45)cc3)nn2)c2ccc(Cl)cc21`, with 6.58; and `O=C1C(=O)N(CCCn2cc(COc3ccc(/C=N/Nc4ccnc5cc(Cl)ccc45)cc3)nn2)c2ccc(Cl)cc21`, with 6.46; and `O=C1C(=O)N(CCCCn2cc(COc3ccc(/C=N/Nc4ccnc5cc(Cl)ccc45)cc3)nn2)c2ccc(Cl)cc21`, with 6.85.
Then `Cc1ccc2c(c1)C(=O)C(=O)N2CCn1cc(COc2ccc(/C=N/Nc3ccnc4cc(Cl)ccc34)cc2)nn1`, with 6.73; and `Cc1ccc2c(c1)C(=O)C(=O)N2CCCn1cc(COc2ccc(/C=N/Nc3ccnc4cc(Cl)ccc34)cc2)nn1`, with 6.79.
In the case of `Cc1ccc2c(c1)C(=O)C(=O)N2CCCCn1cc(COc2ccc(/C=N/Nc3ccnc4cc(Cl)ccc34)cc2)nn1`, the negative logarithm of the IC50 (pIC50) was 6.69.
Next, `O=C1C(O)c2ccccc2N1CCn1cc(COc2ccc(CNNc3ccnc4cc(Cl)ccc34)cc2)nn1` (configuration not stated): 6.89; `O=C1C(O)c2ccccc2N1CCCn1cc(COc2ccc(CNNc3ccnc4cc(Cl)ccc34)cc2)nn1` (configuration not stated): 6.47.
In the case of `O=C1C(O)c2ccccc2N1CCCCn1cc(COc2ccc(CNNc3ccnc4cc(Cl)ccc34)cc2)nn1` (configuration not stated), the pIC50 is 7.16.
Next, `O=C1C(O)c2cc(F)ccc2N1CCn1cc(COc2ccc(CNNc3ccnc4cc(Cl)ccc34)cc2)nn1` (configuration not stated): 6.95; `O=Cc1ccc(OCc2cn(CCCN3C(=O)C(=O)c4ccccc43)nn2)cc1`: less than 5.00.
Then `O=Cc1ccc(OCc2cn(CCCCN3C(=O)C(=O)c4ccccc43)nn2)cc1`, with less than 5.00.
In turn, `O=Cc1ccc(OCc2cn(CCN3C(=O)C(=O)c4cc(F)ccc43)nn2)cc1` had a negative logarithm of the IC50 (pIC50) of less than 5.00.
The compound `O=Cc1ccc(OCc2cn(CCCN3C(=O)C(=O)c4cc(F)ccc43)nn2)cc1` showed a negative-log IC50 (pIC50) of less than 5.00.
Then `O=Cc1ccc(OCc2cn(CCCCN3C(=O)C(=O)c4cc(F)ccc43)nn2)cc1`, with less than 5.00; and `O=Cc1ccc(OCc2cn(CCN3C(=O)C(=O)c4cc(Cl)ccc43)nn2)cc1`, with less than 5.00; and `O=Cc1ccc(OCc2cn(CCCN3C(=O)C(=O)c4cc(Cl)ccc43)nn2)cc1`, with less than 5.00.
Next, `O=Cc1ccc(OCc2cn(CCCCN3C(=O)C(=O)c4cc(Cl)ccc43)nn2)cc1`: less than 5.00; `Cc1ccc2c(c1)C(=O)C(=O)N2CCn1cc(COc2ccc(C=O)cc2)nn1`: less than 5.00.
Next, `Cc1ccc2c(c1)C(=O)C(=O)N2CCCn1cc(COc2ccc(C=O)cc2)nn1`: less than 5.00; `Cc1ccc2c(c1)C(=O)C(=O)N2CCCCn1cc(COc2ccc(C=O)cc2)nn1`: 5.19; `O=C1C(=O)N(CCn2cc(COc3ccc(/C=N/Nc4ccnc5cc(Cl)ccc45)cc3)nn2)c2ccccc21`: 6.93.
For `O=C1C(=O)N(CCCn2cc(COc3ccc(/C=N/Nc4ccnc5cc(Cl)ccc45)cc3)nn2)c2ccccc21`, the negative-log IC50 (pIC50) was 6.78.
Then `O=C1C(=O)N(CCCCn2cc(COc3ccc(/C=N/Nc4ccnc5cc(Cl)ccc45)cc3)nn2)c2ccccc21`, with 6.92.
Next, `O=Cc1ccc(OCc2cn(CCN3C(=O)C(=O)c4ccccc43)nn2)cc1`: less than 5.00; `C[C@@H]1CC[C@H]2[C@@H](C)C(=O)O[C@@H]3O[C@@]4(C)CC[C@@H]1[C@]32OO4` [ARTEMISININ]: 8.15.
